US5854282A, “3-benzoyl benzofuran derivatives as thyroid hormone antagonists” (Karo Bio AB, priority 1994, dated 1998)

Tests used:
[1] = biological target: T1, human thyroid hormone receptor α (Homo sapiens, UniProt P10827); experiment: ALP reporter gene activity in TRAF α thyroid hormone reporter cells (agonism/antagonism ± T3); format: cell-based; conditions: for antagonism to T3 in the ThRα reporter cell line / augmention of the agonism of T3 in the ThRα reporter cell line: in the presence of 1 nM T3; for partial agonist/antagonist activity in the ThRα reporter cell line: ±1 nM T3
T1 sequence (P10827 1-370): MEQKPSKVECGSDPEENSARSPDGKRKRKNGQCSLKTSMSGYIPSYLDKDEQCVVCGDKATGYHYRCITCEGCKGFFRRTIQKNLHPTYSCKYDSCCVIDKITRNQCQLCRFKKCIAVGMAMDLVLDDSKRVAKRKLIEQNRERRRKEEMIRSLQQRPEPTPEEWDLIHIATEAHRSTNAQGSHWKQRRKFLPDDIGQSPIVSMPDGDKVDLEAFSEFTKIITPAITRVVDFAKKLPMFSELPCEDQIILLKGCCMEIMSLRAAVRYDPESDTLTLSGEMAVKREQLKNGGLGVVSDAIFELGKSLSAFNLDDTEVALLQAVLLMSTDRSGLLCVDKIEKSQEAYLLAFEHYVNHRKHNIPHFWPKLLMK
Procedure: (§1) The biological activity of compounds in accordance with the invention was tested in thyroid hormone responsive reporter cell lines.
(§2) The thyroid hormone reporter cell lines (TRAF α and TRAF β) are genetically engineered, mammalian cell lines expressing thyroid hormone receptor (ThR) α and β, respectively. These thyroid hormone responding cell lines contain stable integrated artificial transcription units comprised of a thyroid hormone response element (TRE) and core promoter sequences fused to a downstream reporter gene encoding a secreted form of alkaline phosphatase (ALP).
(§3) In the absence of thyroid hormone the cells express only very low levels of the ALP reporter protein. […] The level of thyroid hormone dependent ALP protein expressed can be determined indirectly by an enzymatic chemiluminescence assay as previously described (Advances in Steroid Analysis '93, editor: Gorog S., Proceedings of the 5th Symposium on the analysis of Steroids, Published by Akademiai Kiado, Budapest, Hungary, p. 57-67). Briefly, an aliquot of the conditioned cell culture medium is mixed with AMPPD (disodium 3-4-methoxyspiro(1,2-dioxetane-3,2'-tricyclo(3,3.1)decan)-4-yl) phenyl phosphate containing assay buffer and incubated at 37° C. for 20 minutes. AMPPD was purchased from Boule Diagnostic, Sweden. The ALP in the medium sample dephosphorylates AMPPD generating an unstable intermediate which decomposes and emits light which is measured in a microplate format luminometer (Luminoskan, Labsystems, Finland). The rate of light emission is directly proportional to the level of ALP present in the sample.
The TRAF α and β cells, respectively, were seeded at a density of 2-2.5×10^4 cells/well in 96-well microtiterplates (suitable for growth of mammalian cells). The cells were seeded in Coon's medium (without phenolred) (SVA, Uppsala, Sweden)+10% FCS (Gibco-BRL) (hormone stripped) and cultivated overnight at 37° C. and 5% CO2 in a humidified incubator.
The cells were then cultivated at 37° C. and 5% CO2 in a humidified incubator for an additional 48 hours.
48 hours post addition of the hormonal/test compounds, cell number and cell morphology were examined under the light-microscope. A 10 μl aliquot of conditioned medium from each well was then transferred to white microtiterplates and assayed for the level of ALP reporter protein expressed (as described in Advances in Steroid Analysis '93 above). In addition, the cell toxic effect of compounds was determined by the colorimetric MTS/PMS assay according to the suppliers recommendation (Promega Corp. through Scandinavian Diagnostic Services, Sweden)
Hormone/test compounds added to the TRAF α and β reporter cells, respectively, per well in 96-well microtiter plates

[2] = biological target: T2, human thyroid hormone receptor β1 (ThRβ1) (Homo sapiens, UniProt P10828); experiment: Competition with 125I-T3 for binding to human thyroid hormone receptor β1 (ThRβ1); conditions: competition with 0.2 nM 125I-T3
T2 sequence (P10828 1-461): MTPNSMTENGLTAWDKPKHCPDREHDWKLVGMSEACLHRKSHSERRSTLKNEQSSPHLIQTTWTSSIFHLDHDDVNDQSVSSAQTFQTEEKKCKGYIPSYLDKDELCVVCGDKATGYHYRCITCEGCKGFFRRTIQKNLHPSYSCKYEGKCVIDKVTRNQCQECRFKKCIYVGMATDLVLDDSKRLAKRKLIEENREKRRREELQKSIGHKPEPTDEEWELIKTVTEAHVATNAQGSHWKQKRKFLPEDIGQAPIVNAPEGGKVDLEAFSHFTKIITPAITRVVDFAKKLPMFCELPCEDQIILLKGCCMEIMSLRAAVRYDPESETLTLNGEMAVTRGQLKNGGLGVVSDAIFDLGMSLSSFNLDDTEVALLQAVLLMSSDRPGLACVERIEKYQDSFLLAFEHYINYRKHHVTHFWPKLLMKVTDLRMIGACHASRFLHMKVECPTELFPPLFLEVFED
Procedure: (§4) A series of dilutions of each compound produced (Examples 1-15) were allowed to compete with a fixed concentration (0.2 nM) of ^125 I-T3 for binding to the human thyroid hormone receptor β1 (ThRβ1). In some examples, binding to the human thyroid hormone receptor α1 (ThRα1) was included.
(§5) After reaching equilibrium a separation step on Sephadex-G25 columns was introduced whereby the receptors were separated from compounds of low molecular weight (i.e the radioactive labeled hormones). The eluated receptor bound radioactivity was measured in a gamma-counter or with regular liquid scintillation counting.
(§6) An IC50 -value (The concentration of compound required to inhibit 50% of the binding of radioactive labeled hormone) was calculated from the curves.

[3] = biological target: T3, human thyroid hormone receptor α1 (ThRα1) (Homo sapiens, UniProt P10827); experiment: Competition with 125I-T3 for binding to human thyroid hormone receptor α1 (ThRα1); conditions: competition with 0.2 nM 125I-T3
T3 sequence (P10827 1-410 isoform P10827-2): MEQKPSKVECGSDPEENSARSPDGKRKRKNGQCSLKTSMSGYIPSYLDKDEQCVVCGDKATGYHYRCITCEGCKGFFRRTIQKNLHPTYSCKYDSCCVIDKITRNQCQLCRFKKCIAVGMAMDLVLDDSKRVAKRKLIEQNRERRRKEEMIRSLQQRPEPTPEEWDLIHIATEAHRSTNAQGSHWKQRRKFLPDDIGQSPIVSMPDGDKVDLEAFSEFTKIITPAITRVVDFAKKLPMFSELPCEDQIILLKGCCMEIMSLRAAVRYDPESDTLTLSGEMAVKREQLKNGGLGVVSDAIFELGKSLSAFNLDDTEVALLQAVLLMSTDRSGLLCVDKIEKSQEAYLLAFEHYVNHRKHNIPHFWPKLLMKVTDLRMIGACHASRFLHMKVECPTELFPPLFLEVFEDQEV
Procedure: as §4, §5, §6

[4] = biological target: T4, human thyroid hormone receptor β (Homo sapiens, UniProt P10828); experiment: ALP reporter gene activity in TRAF β thyroid hormone reporter cells (agonism/antagonism ± T3); format: cell-based; conditions: for antagonist activity in the ThRβ reporter cell line: in the presence of 1 nM T3
T4 sequence (P10828 1-461): T2 sequence (P10828 1-461)
Procedure: as §1, §2, §3
The TRAF α and β cells, respectively, were seeded at a density of 2-2.5×10^4 cells/well in 96-well microtiterplates (suitable for growth of mammalian cells). […]
48 hours post addition of the hormonal/test compounds, cell number and cell morphology were examined under the light-microscope. […] In addition, the cell toxic effect of compounds was determined by the colorimetric MTS/PMS assay according to the suppliers recommendation (Promega Corp. through Scandinavian Diagnostic Services, Sweden) […]

Structure (SMILES) | IC50 [2] | IC50 [3] | other results
CCCCc1oc2ccc(NS(=O)(=O)C(F)(F)F)cc2c1C(=O)c1cc(I)c(OCC(=O)O)c(I)c1 [Example 1, 2-n-Butyl-3(3,5-diiodo-4-carboxymethoxybenzoyl)-5-trifluoromethylsulphonamidobenzofuran] | 2.24 µM | – | antagonism to T3 in the ThRα reporter cell line [1]: no antagonism to T3; augmention of the agonism of T3 in the ThRα reporter cell line [1]: concentration dependent augmention of the agonism of T3
CCCCc1oc2ccc(NC(=O)C(C)C)cc2c1C(=O)c1cc(I)c(OCC(=O)O)c(I)c1 [Example 2] | 6.61 µM | – | antagonism to T3 in the ThRα reporter cell line [1]: no antagonism to T3; augmention of the agonism of T3 in the ThRα reporter cell line [1]: concentration dependent augmention of the agonism of T3
CCCCc1oc2ccc(NC(=O)c3ccc(OC)cc3)cc2c1C(=O)c1cc(I)c(OCC(=O)O)c(I)c1 [Example 3, 2-n-Butyl-3-(3,5-diiodo-4-carboxymethoxybenzoyl)-5-(4-methoxybenzamido)benzofuran] | 1.51 µM | – | –
CCCCc1oc2ccc(NC(=O)c3ccc(O)cc3)cc2c1C(=O)c1cc(I)c(OCC(=O)O)c(I)c1 [Example 4, 2-n-Butyl-3-(3,5-diiodo-4-carboxymethoxybenzoyl)-5-(4-hydroxybenzamido)benzofuran] | 2.04 µM | 2.51 µM | –
CC(C)c1oc2ccc(NS(=O)(=O)C(F)(F)F)cc2c1Cc1cc(I)c(OCC(=O)O)c(I)c1 [Example 5, 2-Isopropyl-3-(3,5-diiodo-4-carboxymethoxybenzyl)-5-trifluoromethylsulphonamidobenzofuran] | 7.94 µM | – | antagonism to T3 in the ThRα reporter cell line [1]: no antagonism to T3; augmention of the agonism of T3 in the ThRα reporter cell line [1]: concentration dependent augmention of the agonism of T3
CC(C)c1oc2ccc(NS(=O)(=O)C(F)(F)F)cc2c1C(=O)c1cc(I)c(OCC(=O)O)c(I)c1 [Example 6, 2-isopropyl-3-(3,5-diiodo-4-carboxymethoxybenzoyl)-5-trifluoromethylsulphonamidobenzofuran] | 3.72 µM | – | –
COc1ccc(C(=O)Nc2ccc3oc(C(C)C)c(C(=O)c4cc(I)c(OCC(=O)O)c(I)c4)c3c2)cc1 [Example 7, 2-Isopropyl-3-(3,5-diiodo-4-carboxymethoxybenzoyl)-5-(4-methoxybenzamido)benzofuran] | 3.63 µM | – | –
CC(C)c1oc2ccc(NC(=O)c3ccc(O)cc3)cc2c1C(=O)c1cc(I)c(OCC(=O)O)c(I)c1 [Example 8, 2-Isopropyl-3-(3,5-diiodo-4-carboxymethoxybenzoyl)-5-(4-hydroxybenzamido)benzofuran] | 1.82 µM | – | –
CCCCc1oc2ccc(NC(=O)c3ccc(F)cc3)cc2c1C(=O)c1cc(I)c(OCC(=O)O)c(I)c1 [Example 9, 2-n-Butyl-3-(3,5-diiodo-4-carboxymethoxybenzoyl)-5-(4-fluorobenzamido)benzofuran] | 3.55 µM | 3.31 µM | –
CC(C)c1oc2ccc(NC(=O)c3ccc([N+](=O)[O-])cc3)cc2c1C(=O)c1cc(I)c(OCC(=O)O)c(I)c1 [Example 10, 2-Isopropyl-3-(3,5-diiodo-4-carboxymethoxybenzoyl)-5-(4-nitrobenzamido)benzofuran] | 4.27 µM | – | –
CCCCc1oc2ccc(NC(=O)Nc3ccc(OC)cc3)cc2c1C(=O)c1cc(I)c(OCC(=O)O)c(I)c1 [Example 11, 2-n-Butyl-3-(3,5-diiodo-4-carboxymethoxybenzoyl)-5-(4-methoxyphenylureido)benzofuran] | 3.72 µM | 3.24 µM | partial agonist/antagonist activity in the ThRα reporter cell line [1]: partial agonist/antagonist activity; partial agonist/antagonist activity in the ThRβ reporter cell line ([4]; ±1 nM T3): partial agonist/antagonist activity
CCCCc1oc2ccc(NC(=O)Nc3ccc(O)cc3)cc2c1C(=O)c1cc(I)c(OCC(=O)O)c(I)c1 [Example 12, 2-n-Butyl-3-(3,5-diiodo-4-carboxymethoxybenzoyl)-5-(4-hydroxyphenylureido)benzofuran] | 1.26 µM | 1.82 µM | –
CCCCc1oc2ccc(NC(=O)c3ccc(O)cc3)cc2c1C(=O)c1cc(Br)c(OCC(=O)O)c(Br)c1 [Example 13, 2-n-Butyl-3-(3,5-dibromo-4-carboxymethoxybenzoyl)-5-(4-hydroxybenzamido)benzofuran] | 2.4 µM | 2.57 µM | –
COc1ccc(C(=O)Nc2ccc3oc(C(C)C)c(C(=O)c4cc(Br)c(OCC(=O)O)c(Br)c4)c3c2)cc1 [Example 14, 2-Isopropyl-3-(3,5-dibromo-4-carboxymethoxybenzoyl)-5-(4-methoxybenzamido)benzofuran] | 3.47 µM | 3.63 µM | partial agonist/antagonist activity in the ThRα reporter cell line [1]: partial agonist/antagonist activity; antagonist activity in the ThRβ reporter cell line [4]: no or only weak antagonist activity
CC(C)c1oc2ccc(NC(=O)c3ccc(O)cc3)cc2c1C(=O)c1cc(Br)c(OCC(=O)O)c(Br)c1 [Example 15, 2-Isopropyl-3-(3,5-dibromo-4-carboxymethoxybenzoyl)-5-(4-hydroxybenzamido)benzofuran] | 3.31 µM | 3.09 µM | partial agonist/antagonist activity in the ThRα reporter cell line [1]: partial agonist/antagonist activity; antagonist activity in the ThRβ reporter cell line [4]: no or only weak antagonist activity
